Tests used:
HMG-CoA reductase = test: HMGR Screen (inhibition of solubilized rat liver HMG-CoA reductase, [14C] HMG-CoA); format: biochemical; conditions: solubilized rat liver microsomal enzyme; 20 μM HMG-CoA; 37° C.; pH 7.0; read-out: IC50 (Micromoles per liter), HMGR Screen
Procedure: The first method used (designated HMGR Screen) was as follows. Male rats were acclimated to an alternate 12 hour light-dark cycle for a period of 2-3 weeks. The animals, weighing 180-230 g, were fed ad libitum a rat chow containing 2% cholestyramine for 5 days prior to sacrifice at the mid-dark period. Liver microsomes were prepared and HMGR enzyme was solubilized from the microsomes by freeze-thaw manipulation in high ionic strength buffer. The enzyme preparation was stored at -80° C. in 300 μl portion samples. Prior to use, the enzyme was activated at 37° C. for 30 minutes in a reaction mixture. The reaction mixture contained in a volume of 240 μl:0.14M potassium phosphate buffer (pH 7.0); 0.18M KCl; 3.5 mM EDTA; 10 mM dithiothreitol; 0.1 mg/ml BSA; 30,000 cpm of [^14 C] HMG-CoA; 20 μM HMG-CoA, and 200 μg of solubilized enzyme with and without inhibitors (in 10 μDMSO). After 5 minutes incubation at 37° C. the reaction was initiated with 0.2 mM NADPH. The final assay volume was 300 μl. The reaction then was terminated with 100 μl of 1N HCl. After an additional incubation for 15 minutes at 37° C. to allow for complete lactonization of the product, the mixture was diluted with 3 ml GDW. […] After the addition of 10 ml of Aquasol , radioactivities of the samples were measured in a scintillation counter.

[1] = system: cholesterol synthesis in rat liver; test: Ex-Vivo Fasted (cholesterol synthesis from [14C] sodium acetate in liver slices of orally dosed fasted rats); conditions: 1 mg/kg oral in 0.5% methocel, rats fasted 16 hours, livers removed after one hour
Procedure: The second method (designated Ex-Vivo Fasted) used was as follows. Rats of 170-210 g were maintained on a low cholesterol diet for one week prior to use. Drugs (identified in Table I) were given orally in 0.5% methocel to fasted (fasted for 16 hours) rats. After one hour the rats were decapitated and their livers removed and transferred to chilled oxygenated Kreb's-Ringer-bicarbonate buffer (pH 7.4). The livers were then chopped into 0.5 mm slices using a McIlwain tissue chopper, and were suspended in the same buffer. Aliquots of the suspension containing 100 mg tissue were pipetted to culture tubes which contained [^14 C] sodium acetate (2μ Ci, 1 mM). The tubes were gassed with 95% O2 /5 % CO2, capped and incubated at 37° C. in a shaking water bath at 150 oscillation/min. for two hours. The final assay volume was 1.0 ml. After incubation the reaction was stopped by the addition of 1.0 ml of 15% KOH in ethanol, and the internal standard ^3 H-cholesterol was added. The tubes were recapped and the samples were saponified at 75° C. for two hours with periodic mixing. Subsequently an aliquot was removed for protein analysis using Bio-Rad's standard kit, and the remainder of the saponified samples was extracted with 10 ml of petroleum ether for 30 minutes. […] After visualization with iodine the cholesterol spots were cut and counted with liquid scintillation fluid.

IC50 (HMG-CoA reductase) [nM] | Compound | inhibition at 1 mg/kg [1] [%]
70 | O=C1C[C@@H](O)C[C@H](/C=C/C2=C(c3ccc(F)cc3)C=C(c3ccccc3)C23CCCC3)O1 (relative stereo) [Lactone Form of Compound of Example I Step 9] [Trans-(E)-6-[2-[2-(4-fluorophenyl)-4-phenyl-spiro[4,4]-nona-1,3-dien-1-yl]ethenyl]-3,4,5,6-tetrahydro-4-hydroxy-2H-pyran-2-one] | –
0.9 | O=C1C[C@@H](O)C[C@H](/C=C/C2=C(c3ccc(F)cc3)C=C(c3ccccc3)C23CCCC3)O1 (relative stereo) [Compound of Example I Step 9, Trans-(E)-6-[2-[2-(4-fluorophenyl)-4-phenyl-spiro[4,4]-nona-1,3-dien-1-yl]ethenyl]-3,4,5,6-tetrahydro-4-hydroxy-2H-pyran-2-one] | –
– | O=C(O)C[C@H](O)C[C@H](O)/C=C/C1=C(c2ccc(F)cc2)C=C(c2ccccc2)C12CCCC2 (relative stereo) | 65 ± 4
